PubChem BioAssay AID179 (DTP/NCI, 2004)
Calls of active or inactive are those of the source.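 Rule for the calls: active = compounds giving half or more protection of infected cells from virus-caused growth loss, again on retest; inactive = the rest.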

Tested on: CEM cells HIV-1 protection, formazan growth assay
Assay: NCI AIDS Antiviral Assay
Conditions: for IC50: measured here: growth of uninfected CEM cells
In short: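 Protection of CEM cells against HIV-1 measured as cell growth via soluble formazan read-out, with five concentrations tested on both infected and uninfected cells; failure to protect may reflect toxicity.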

Row | Structure (SMILES) | EC50 [µM] | IC50 [µM] | outcome
1 | COC(=O)[C@H](Cc1c[nH]c2ccccc12)NP(=O)(OCCC#N)OCC1OC(n2cc(C)c(=O)[nH]c2=O)CC1N=[N+]=[N-] (some centres not stated) | 55 | 186 | –
2 | O=C1CC(Cc2n[nH]c3c2CCCC3)CC(=O)N1 | > 200 | > 200 | –
3 | CCc1nc(N)nc(N)c1-c1ccc(Cl)c(Cl)c1 | > 200 | 1.45 | –
4 | CC(CN(C)C)OCCn1c2c(c3ccccc31)CCCC2 (configuration not stated) | > 200 | 13.5 | –
5 | CC[C@H]1CC(=O)c2c(cc3c(c2O)C(=O)c2ccccc2C3=O)[C@@]1(C#N)C(=O)OC(C)(C)C | – | – | inactive
6 | CCOC(=O)C(=O)C1C(=O)N(C)C2(C)CC1c1ccccc1O2 (configuration not stated) | > 200 | > 200 | –
7 | CN(/N=C/c1ccnc2ccccc12)c1ccc(Cl)cc1[N+](=O)[O-] | > 100 | 12.3 | –
8 | COC(=O)C1=CC(=O)N2CCN=C2S1 | > 200 | > 200 | –
9 | CC1=C2OCS(=O)C2C2C(=O)N(c3ccccc3)C(=O)C2C1 (configuration not stated) | > 794 | 501 | –
10 | O=C(c1ccc(Cl)cc1)N(C(=S)N1CCN(c2ccccc2)CC1)C1CCCCC1 | > 6.17 | > 6.17 | –
11 | CSc1nc(-c2ccccc2)c2c(n1)-c1ccccc1CC2 | > 12.3 | > 12.3 | –
12 | O=S(=O)(OC(=C(c1ccccc1)c1ccccc1)c1ccccc1)C(F)(F)F | > 17.8 | > 17.8 | –
13 | CCOC(=O)c1ccc(/C(C)=N/NC(N)=S)cc1 | – | – | inactive
14 | CN(C)/N=C1\C=C2CC[C@H](O[Si](C)(C)C(C)(C)C)[C@@]2(C)CC1 | > 200 | 12.3 | –
15 | O=C1NC(=O)C(CC2CCCCCCCCCCC2=O)C(=O)N1 (configuration not stated) | > 112 | > 112 | –
16 | CCCCNc1nc2ccccc2c2c1ncn2CC(C)C | > 200 | 20 | –
17 | O=[N+]([O-])c1ccc2ncccc2c1CCc1c([N+](=O)[O-])ccc2ncccc12 | – | – | inactive
18 | O=C(OCc1ccccc1)C1(N2CN(C3(C(=O)OCc4ccccc4)CCCC3)CN(C3(C(=O)OCc4ccccc4)CCCC3)C2)CCCC1 | > 200 | 35.5 | –
19 | C[C@H]1c2c(n(C3OC(CO)C(O)C3O)c(=O)[nH]c2=O)O[C@@H]1c1ccccc1 (some centres not stated) | > 200 | > 200 | –
20 | O=c1[nH]c(=S)c2cncnc2n1C1OC(CO)C(O)C1O (configuration not stated) | > 200 | > 200 | –
21 | CP(=O)(O)C(N)Cc1c[nH]c2ccccc12 (configuration not stated) | > 100 | > 100 | –

Row | Structure (SMILES) | EC50 [µM] | IC50 [µM] | outcome
22 | O=C(Nc1cccc2c1C(=O)c1c(NC(=O)c3ccccc3)ccc(Nc3cccc4c3C(=O)c3ccccc3C4=O)c1C2=O)c1ccccc1 | > 200 | 120 | –
23 | Cc1ccc(S(=O)(=O)N2CCN(C=S)CC2)cc1 | > 91.2 | > 91.2 | –
24 | COc1cc2c(c(O)c1OC)CC1CCC(=O)N1C2c1cccc2ccccc12 (configuration not stated) | > 200 | 17.4 | –
25 | CCOC(=O)NN(C(=O)OCC)C(C(=O)C1CCCCC1)N(NC(=O)OCC)C(=O)OCC | – | – | inactive
26 | O=c1[nH]c(=O)n(C2CC(O)C(CO)O2)cc1OCCc1ccccc1 (configuration not stated) | > 200 | > 200 | –
27 | O=c1oc2cc(O)ccc2c(O)c1C(c1ccc(C(c2c(O)c3ccc(O)cc3oc2=O)c2c(O)c3ccc(O)cc3oc2=O)cc1)c1c(O)c2ccc(O)cc2oc1=O | > 200 | 91.2 | –
28 | CCOc1ccccc1NC(=O)CSc1nnc(Cc2ccccc2)o1 | > 182 | 10 | –
29 | CC(C)CCCC(C)[C@H]1CC[C@H]2[C@@H]3CC[C@H]4C[C@@H](CCC=C(c5cc(Cl)c(OCc6cccc(B(O)O)c6)c(C(=O)O)c5)c5cc(Cl)c(OCc6cccc(B(O)O)c6)c(C(=O)O)c5)CC[C@]4(C)[C@H]3CC[C@]12C (some centres not stated) | 138 | > 200 | –
30 | Cc1ccc(S(=O)(=O)NC(CSSCC(NS(=O)(=O)c2ccc(C)cc2)C(=O)OC(C)(C)C)C(=O)OC(C)(C)C)cc1 (configuration not stated) | > 200 | > 200 | –
31 | Nc1ncnc2c1ncn2CC(O)CO (configuration not stated) | – | – | inactive
32 | N.N.N.N.O=C([O-])C(=O)O.O=C([O-])C(=O)[O-].[Co+3] | – | – | inactive
33 | CC(=O)C1C(=O)OC2C3C=CC(C3)C2C1=O (configuration not stated) | > 309 | > 309 | –
34 | COC(=O)CC=C(c1cc(Cl)c(OC)c(C(=O)OC)c1)c1cc(Cl)c(OC)c(C(=O)OC)c1 | > 200 | 41.7 | –
35 | C=CCO/N=C(\OC(=O)c1ccc([N+](=O)[O-])cc1)c1ccccc1 | > 151 | > 151 | –
36 | NC1=NC2(COC(c3ccccc3)(c3ccccc3)c3ccccc3)OC(COC(c3ccccc3)(c3ccccc3)c3ccccc3)C(O)C2O1 (configuration not stated) | > 200 | 12 | –
37 | CC(=O)O[C@@H]1CO[C@H]2O[C@H]3[C@@H](C(C=O)=C[C@H](O)[C@@H]4C5=C(C(C)C)CC[C@]5(C)CC[C@@]34C)[C@@]2(O)C1=O | > 0.575 | 0.0759 | –
38 | O=C(O)CCNCCCCNCCC(=O)O | > 813 | > 813 | –
39 | C=CC(C1=CC(=O)C(OC)=CC1=O)c1ccc(OC)cc1 (configuration not stated) | – | – | inactive
40 | COC1C(OC(=O)c2ccc(C)[nH]2)C(O)C(Oc2ccc3c(O)c(NC(=O)c4ccc(O)c(CC=C(C)C)c4)c(=O)oc3c2Cl)OC1(C)C (configuration not stated) | > 200 | 15.8 | –
41 | NS(=O)(=O)c1cc2c(cc1Cl)NC=NS2(=O)=O | > 851 | > 851 | –
42 | CCc1cccc(C)c1NC(=S)NC(=O)c1ccccc1C(=O)NC(=S)Nc1c(C)cccc1CC | > 69.2 | > 69.2 | –

Row | Structure (SMILES) | EC50 [µM] | IC50 [µM] | outcome
43 | O=c1oc2c(ccc3c(O)cccc32)c2c1CCCC2 | > 200 | > 200 | –
44 | COC(=O)/C=C(/C=C1/C(C#N)=C(N)N(c2ccc(Cl)cc2)C1(C)/C(=C\C(=O)OC)C(=O)OC)C(=O)OC (configuration not stated) | > 200 | 8.91 | –
45 | O=C1c2ccccc2C(=Nc2ccc3ccccc3c2)C1(C1=C(c2ccccc2)C(=Nc2ccc3ccccc3c2)c2ccccc21)c1ccccc1 (configuration not stated) | > 200 | 11.7 | –
46 | S=C1CNC(=S)CN1 | – | – | inactive
47 | Cc1ccc(C2(C(=O)O)CCCN2)cc1 (configuration not stated) | > 200 | > 200 | –
48 | Fc1ccc(-c2sc(-c3ccsc3)cc2Cc2ccsc2)cc1 | – | – | inactive
49 | Cc1[nH]c2ncnc(N)c2c1Cc1ccccc1 | > 200 | 2.63 | –
50 | COC1[C@]2(O)C(=O)N3/C=C\C(C)(C)c4[nH]c5ccccc5c4/C=C\3C(=O)N2C23C(C)C(C)(C)N2c2ccccc2[C@]13O (some centres not stated) | – | – | inactive
51 | Nc1nc[n+](Cc2ccccc2CCO)c2nc[nH]c12 | > 37.2 | > 37.2 | –
52 | NC1=NS(=O)(=O)Nc2nc(-c3cccs3)[nH]c21 | > 200 | > 200 | –
53 | NS(=O)(=O)c1ccccc1[N+](=O)[O-] | – | – | inactive
54 | N=C(N)c1ccc(C(NC(=O)CNS(=O)(=O)c2ccc3ccccc3c2)P(=O)(Oc2ccccc2)Oc2ccccc2)cc1 (configuration not stated) | 0.741 | 7.08 | –
55 | CS(=O)(=O)OCCn1cnc2nc(NC(=O)c3ccccc3)[nH]c(=O)c21 | > 182 | > 182 | –
56 | CCCCCCCCCCCC1=C(NCCS)C(=O)C=C(NCCS)C1=O | > 1.26 | > 1.26 | –
57 | CCC(=O)ONC(=O)Cn1ccc([N+](=O)[O-])n1 | > 200 | 66.1 | –
58 | Cc1nn(-c2ccc(S(=O)(=O)[O-])cc2)c([O-])c1N=[N+](C)c1ccc(-c2ccc(N=Nc3ccc4c(S(=O)(=O)[O-])cc(S(=O)(=O)[O-])c(N)c4c3[O-])c([O-])c2)cc1[O-].[Cu+2].[Cu+2].[Na+] | 6.76 | 120 | –
59 | O=C1[C@@H]2CC(O)[C@@H]3C(=O)[C@@H]4CC(O)[C@H]1[C@@H]4[C@H]23 (some centres not stated) | > 1120 | > 1120 | –
60 | O=C(O)C1CC2=C(CN1)Cc1ccccc12 (configuration not stated) | > 9.33 | > 9.33 | –
61 | CC1CN=C(NS(=O)(=O)c2cc(C(=O)Nc3ccc(Cl)cc3)c(Cl)cc2S)NN1 (configuration not stated) | > 200 | 14.8 | –
62 | CCN(CC)CCN.[O-][Cl+3]([O-])([O-])[O-].[Pd+2].c1ccc(-c2ccccn2)nc1 | > 200 | 32.4 | –
63 | CC[C@H](C)N(CCN)C(=O)c1cc2ccccc2c(-c2ccccc2Cl)n1 | – | – | inactive

Row | Structure (SMILES) | EC50 [µM] | IC50 [µM] | outcome
64 | CN1C=C(C(N)=O)Cc2ccsc21 | > 1290 | 66.1 | –
65 | CC(C)N(C(=O)C12C3C4C1C1C4(C#N)C3C12C#N)C(C)C (configuration not stated) | > 129 | > 129 | –
66 | CCOC(=O)C1SC(=Nc2ccc(Cl)cc2C)N=C1C (configuration not stated) | > 32.4 | > 32.4 | –
67 | CN1CCC2(CC1)N=C1CCN(C)CC1S2 (configuration not stated) | > 457 | 87.1 | –
68 | CC12CCCN1C(=O)C1(C)CCCN1C2=O (configuration not stated) | > 200 | > 200 | –
69 | COC(=O)CSC(=S)Nc1nnc(NC(=S)SCOC(C)=O)n1C(=S)SCC(=O)OC | > 200 | > 200 | –
70 | CC(=O)OCC1OC(N=[N+]=[N-])C(OC(C)=O)C(OC(C)=O)C1OC1OC(COC(C)=O)C(OC(C)=O)C(OC(C)=O)C1OC(C)=O (configuration not stated) | > 53.7 | > 53.7 | –
71 | N#Cc1nc(-c2cc([N+](=O)[O-])cc([N+](=O)[O-])c2)oc1N | > 100 | > 100 | –
72 | Brc1c(C(Br)Br)ccc2ccccc12 | > 200 | 23.4 | –
73 | CC1(c2ccccc2)OC(=O)c2c1ccc1ccccc21 (configuration not stated) | – | – | inactive
74 | O=C1c2ccc3cc(CCl)cc(O)c3c2C(=O)c2cccc(O)c21 | > 200 | 5.25 | –
75 | COC(=O)CC(C(C(=O)OCc1ccccc1)C(C)O)N1C(=O)OCC1c1ccccc1 (configuration not stated) | > 200 | 123 | –
76 | CC(=O)OC1C2CCC1C1C2C2(Cl)C(Cl)=C(Cl)C1(Cl)C2(Cl)Cl (configuration not stated) | – | – | inactive
77 | CC(=O)Nc1nc(Cl)c2ncn(C3CCCO3)c2n1 (configuration not stated) | > 200 | 22.4 | –
78 | Cn1cc(NC(=O)c2cc(NC(=O)c3cc(NC=O)cn3C)cn2C)cc1C(=O)NCCC(=N)N | > 513 | 30.2 | –
79 | OC12CCC3(OC4CCCCO4)c4ccccc4C3C1c1ccccc12 (configuration not stated) | > 200 | 89.1 | –
80 | CP1(=S)CCC2=C1c1ccc(O)cc1CC2 (configuration not stated) | – | – | inactive
81 | CC(C)(CCC(C)(C)N1OC1c1ccccc1)N1OC1c1ccccc1 (configuration not stated) | > 200 | 19.1 | –
82 | NC(N)=N/N=C\CC(O)CO (configuration not stated) | > 200 | > 200 | –
83 | Oc1cccc2ccc(SSc3ccc4cccc(O)c4n3)nc12 | > 200 | 20.4 | –
84 | O=[P+](O)c1ccsc1 | – | – | inactive
